Assay type in all cases: functional
Conditions in all cases: read-out: IZ

Experiment [1] concerns Bacillus cereus. Put plainly: Antibacterial activity against Bacillus cereus at 30000 ppm after 24 hrs by agar diffusion method. In general terms: In agar diffusion tests the substance spreads into inoculated agar from a disc or well.
The test system of experiment [2] is Bacillus cereus. Kind of experiment: Antibacterial activity against Bacillus cereus at 50000 ppm after 24 hrs by agar diffusion method.
Experiment [3] deals with Bacillus subtilis. Put plainly: Antibacterial activity against Bacillus subtilis at 10000 ppm after 24 hrs by agar diffusion method.
For experiment [4], the system named is Bacillus subtilis. Kind of experiment: Antibacterial activity against Bacillus subtilis at 30000 ppm after 24 hrs by agar diffusion method.
The subject of experiment [5] is Bacillus subtilis. Put plainly: Antibacterial activity against Bacillus subtilis at 50000 ppm after 24 hrs by agar diffusion method.
For experiment [6], the system named is Escherichia coli. Put plainly: Antibacterial activity against Escherichia coli at 10000 ppm after 24 hrs by agar diffusion method.
Experiment [7] deals with Escherichia coli. Put plainly: Antibacterial activity against Escherichia coli at 30000 ppm after 24 hrs by agar diffusion method.
Experiment [8] has as its system Escherichia coli. Put plainly: Antibacterial activity against Escherichia coli at 50000 ppm after 24 hrs by agar diffusion method.
The subject of experiment [9] is Micrococcus luteus. Put plainly: Antibacterial activity against Micrococcus luteus at 10000 ppm after 24 hrs by agar diffusion method.
For experiment [10], the system named is Micrococcus luteus. Put plainly: Antibacterial activity against Micrococcus luteus at 30000 ppm after 24 hrs by agar diffusion method.
Experiment [11] relates to Micrococcus luteus. Kind of experiment: Antibacterial activity against Micrococcus luteus at 50000 ppm after 24 hrs by agar diffusion method.
The test system of experiment [12] is Staphylococcus aureus. Kind of experiment: Antibacterial activity against Staphylococcus aureus at 30000 ppm after 24 hrs by agar diffusion method.
Experiment [13] deals with Staphylococcus aureus. Kind of experiment: Antibacterial activity against Staphylococcus aureus at 50000 ppm after 24 hrs by agar diffusion method.
The test system of experiment [14] is Pseudomonas aeruginosa. Kind of experiment: Antibacterial activity against Pseudomonas aeruginosa at 50000 ppm after 24 hrs by agar diffusion method.
Experiment [15] concerns Kocuria rosea. Put plainly: Antibacterial activity against Micrococcus roseus at 30000 ppm after 24 hrs by agar diffusion method.
In experiment [16] the test system is Kocuria rosea. Kind of experiment: Antibacterial activity against Micrococcus roseus at 50000 ppm after 24 hrs by agar diffusion method.
Experiment [17] deals with Bacillus cereus. Put plainly: Antibacterial activity against Bacillus cereus at 10000 ppm after 24 hrs by agar diffusion method.
Experiment [18] relates to Pseudomonas aeruginosa. Kind of experiment: Antibacterial activity against Pseudomonas aeruginosa at 10000 ppm after 24 hrs by agar diffusion method.
Experiment [19] relates to Pseudomonas aeruginosa. Kind of experiment: Antibacterial activity against Pseudomonas aeruginosa at 30000 ppm after 24 hrs by agar diffusion method.
For experiment [20], the system named is Kocuria rosea. Put plainly: Antibacterial activity against Micrococcus roseus at 10000 ppm after 24 hrs by agar diffusion method.
The subject of experiment [21] is Staphylococcus aureus. Put plainly: Antibacterial activity against Staphylococcus aureus at 10000 ppm after 24 hrs by agar diffusion method.

The structures appear in SMILES notation.

Experimental findings from ChEMBL document CHEMBL1926648, “Synthesis and biological activity of dihydroimidazole and 3,4-dihydrobenzo[4,5]imidazo[1,2-a][1,3,5]triazins” (2012) are described below.

For `NC1=NC2(CCCC2)n2c(nc3ccccc32)N1`, the zone of inhibition at 30000 ppm in experiment [1] amounted to 5 mm; in experiment [4] it was 12 mm; in experiment [7], 17 mm; in experiment [10] it was 7 mm; in [12], 4 mm; in experiment [15], 3 mm. The zone of inhibition at 50000 ppm was found to be 9 mm in [2]; 15 mm in [5]; 20 mm in [8]; 12 mm in experiment [11]; 6 mm in experiment [13]; 5 mm in experiment [14]. The zone of inhibition at 50000 ppm in [16] was determined as 8 mm. The zone of inhibition at 10000 ppm amounted to 9 mm in experiment [3], 12 mm in experiment [6] and 7 mm in experiment [9].

In the case of `NC1=Nc2nc3ccccc3n2C2(NC(=O)CC(=O)N2)N1`, the zone of inhibition at 10000 ppm in experiment [17] is 1 mm; in experiment [3] it was 6 mm; in experiment [6], 8 mm; in experiment [18], 2 mm; in [20], 1 mm. In addition, the zone of inhibition at 30000 ppm turned out to be 4 mm in experiment [1]; 10 mm in [4]; 11 mm in experiment [7]; 4 mm in experiment [10]; 5 mm in experiment [12]; 6 mm in experiment [19]. For the same molecule, the zone of inhibition at 30000 ppm in experiment [15] was 4 mm. Moreover, the zone of inhibition at 50000 ppm in experiment [2] is 7 mm; in [5], 14 mm; in [8], 15 mm; in experiment [11], 6 mm; in experiment [13] it was 8 mm; in experiment [14], 9 mm. The zone of inhibition at 50000 ppm in experiment [16] was 7 mm.

Turning to `NC1=NC2(CCCCC2)n2c(nc3ccccc32)N1`, the zone of inhibition at 30000 ppm in [1] came out at 4 mm; in experiment [4] it was 11 mm; in experiment [7], 15 mm; in [10], 7 mm; in [19], 4 mm. Further, the zone of inhibition at 50000 ppm in [2] was 9 mm; in experiment [5] it was 13 mm; in [8], 18 mm; in [11] it was 12 mm; in experiment [13], 5 mm; in [14] it was 5 mm. The zone of inhibition at 50000 ppm in experiment [16] amounted to 5 mm. The zone of inhibition at 10000 ppm amounted to 7 mm in experiment [3], 12 mm in experiment [6] and 7 mm in [9].

Turning to `CC1=NN(c2ccccc2)C2(C1)NC(N)=Nc1nc3ccccc3n12` (configuration not stated), the zone of inhibition at 50000 ppm in experiment [2] amounted to 4 mm; in experiment [5], 9 mm; in [8], 16 mm; in experiment [11], 11 mm; in experiment [13], 4 mm; in experiment [14] it was 6 mm. Besides, the zone of inhibition at 50000 ppm in experiment [16] was 8 mm. In addition, the zone of inhibition at 30000 ppm in experiment [4] came to 3 mm; in [7], 13 mm; in experiment [10], 9 mm; in experiment [19] it was 4 mm; in experiment [15] it was 3 mm. Besides, the zone of inhibition at 10000 ppm stood at 8 mm in [6] and 5 mm in experiment [9].

Regarding `CC1(C)[C@@H]2CC[C@@]1(C)C1(C2)NC(N)=Nc2nc3ccccc3n21` (some centres not stated), the zone of inhibition at 50000 ppm in [2] is 4 mm; in [5], 6 mm; in experiment [8] it was 12 mm; in experiment [13] it was 8 mm; in experiment [16], 5 mm. Moreover, the results for the zone of inhibition at 10000 ppm in experiment [3] and in experiment [6] were 3 mm and 4 mm, respectively. Besides, the zone of inhibition at 30000 ppm in [4] was determined as 5 mm; in [7], 9 mm; in [12], 3 mm; in experiment [15] it was 2 mm.

Consider `Oc1c[nH]/c(=N/c2nc3ccccc3[nH]2)[nH]1`, for which the zone of inhibition at 30000 ppm in experiment [1] stood at 5 mm; in experiment [7], 8 mm; in experiment [10], 5 mm; in experiment [12], 7 mm; in [19] it was 8 mm; in experiment [15] it was 6 mm. In addition, the zone of inhibition at 50000 ppm was 10 mm in experiment [2]; 7 mm in experiment [5]; 13 mm in experiment [8]; 9 mm in experiment [11]; 13 mm in experiment [13]; 11 mm in [14]. The zone of inhibition at 50000 ppm in experiment [16] came to 8 mm. The results for the zone of inhibition at 10000 ppm in experiment [6], in [21] and in [18] were 6 mm, 2 mm and 5 mm, respectively.

Take `Cc1c[nH]/c(=N/c2nc3ccccc3[nH]2)[nH]1`: the zone of inhibition at 10000 ppm in experiment [17] stood at 6 mm; in experiment [3] it was 10 mm; in experiment [6] it was 1 mm; in [9], 6 mm; in experiment [20], 5 mm. The zone of inhibition at 30000 ppm in experiment [1] is 9 mm; in experiment [4], 13 mm; in experiment [7], 4 mm; in [10], 7 mm; in experiment [12], 3 mm; in [19], 4 mm. Further, the zone of inhibition at 30000 ppm in experiment [15] was 7 mm. Besides, the zone of inhibition at 50000 ppm in experiment [2] is 12 mm; in experiment [5], 15 mm; in experiment [8], 8 mm; in [11] it was 8 mm; in experiment [13], 6 mm; in experiment [14] it was 7 mm. For the same molecule, the zone of inhibition at 50000 ppm in [16] is 9 mm.

As to `c1ccc(-c2c[nH]/c(=N/c3nc4ccccc4[nH]3)[nH]2)cc1`, the zone of inhibition at 10000 ppm was found to be 6 mm in [17]; 9 mm in experiment [3]; 4 mm in experiment [6]; 4 mm in [18]; 3 mm in experiment [20]. In addition, the zone of inhibition at 30000 ppm in experiment [1] turned out to be 8 mm; in [4], 11 mm; in experiment [7], 6 mm; in experiment [12] it was 5 mm; in experiment [19], 6 mm; in experiment [15], 8 mm. For the same molecule, the zone of inhibition at 50000 ppm in experiment [2] turned out to be 9 mm; in [5], 14 mm; in [8], 8 mm; in experiment [11] it was 3 mm; in [13] it was 9 mm; in [14], 11 mm. In addition, the zone of inhibition at 50000 ppm in [16] stood at 10 mm.

Consider `Nc1c[nH]/c(=N/c2nc3ccccc3[nH]2)[nH]1`, for which the zone of inhibition at 50000 ppm was 4 mm in experiment [2]; 6 mm in [5]; 14 mm in experiment [8]; 8 mm in [11]; 15 mm in [13]; 9 mm in experiment [14]. Moreover, in experiment [16], the zone of inhibition at 50000 ppm stood at 12 mm. Besides, the zone of inhibition at 10000 ppm in experiment [6] was found to be 3 mm; in experiment [21] it was 4 mm; in [18] it was 4 mm; in experiment [20] it was 6 mm. The zone of inhibition at 30000 ppm came out at 8 mm in experiment [7]; 4 mm in experiment [10]; 9 mm in experiment [12]; 7 mm in experiment [19]; 8 mm in experiment [15].

In the case of `Clc1c[nH]/c(=N/c2nc3ccccc3[nH]2)[nH]1`, the zone of inhibition at 50000 ppm in experiment [2] is 6 mm; in experiment [5], 14 mm; in [8] it was 18 mm; in experiment [11], 4 mm; in [13] it was 9 mm; in experiment [14] it was 2 mm. Also, the zone of inhibition at 50000 ppm in experiment [16] was 8 mm. The zone of inhibition at 10000 ppm in experiment [3] came to 6 mm; in [6], 9 mm. In addition, the zone of inhibition at 30000 ppm was 10 mm in experiment [4], 13 mm in [7], 5 mm in experiment [12] and 3 mm in experiment [15].
